pIC50: −log10 of the molar value.
Experiments:
[1] = test system: neopterin formation by GTP-cyclohydrolase 1 (GTP-CH-I) in PBMC; test: Neopterin formation in PBMC supernatants (ELISA) after 48 h treatment; type: cell-based, human; settings: PHA-stimulated PBMC; data not shown; insufficient repetitions for (1) and (3)
Protocol: The study was performed in accordance with the Declaration of Helsinki. PBMC were isolated from healthy donors who gave written consent that their donated blood may be used for scientific purposes, in case when it was not selected for transfusion. The PBMC were isolated by density gradient centrifugation as described earlier. After isolation, the cells were washed three times with phosphate buffered saline containing 1 μM ethylenediaminetetraacetic acid and subsequently they were maintained in RPMI 1640 (Sigma Aldrich, Vienna, Austria) supplemented with 2 mM L-glutamine, 10% heat-inactivated fetal calf serum (Biochrom, Germany) and 50 μg/mL gentamicin (Lonza-BioWhittaker, USA), at 37°C in a humidified atmosphere containing 5% CO2.
(§1) The cells were seeded in 48-well plates (1.5 × 10^6 cells/mL/well) and treated either with increasing concentrations of the extract, the individual fractions or the pure compounds, dissolved in DMSO. The PBMC were either stimulated with 10 μg/mL of the mitogen lectin phytohaemagglutin (PHA) after 30 minutes of treatment, or were left unstimulated. In addition to PHA, the stimulatability of the PBMC was controlled for each experiment by treatment with the lectin concanavalin A (ConA) at a concentration of 10 μg/mL. After 48 h of incubation, cell culture supernatants were collected and stored at −20°C until analysis. In addition, 1-methyl-D-tryptophan (Sigma-Aldrich, Vienna, Austria) was used as a postive control for the suppression of IDO-1 acitivity.
Neopterin concentrations were measured by ELISA (BRAHMS, Germany), according to the manufacturers' instructions with the detection limit of 2 nmol/L.
The half maximal (50% inhibitory) concentration (IC50) was calculated by using the CalcuSyn software (Biosoft, UK) according the concept of Chou and Talalay. […] P-values below 0.05 were considered to indicate significance. Results are expressed as percent of unstimulated and PHA-stimulated control cells and are shown as mean ± standard error of the mean (SEM).

[2] = molecular target: T1, indoleamine 2,3-dioxygenase-1 (IDO-1) (Homo sapiens, UniProt P14902); test: Tryptophan breakdown to kynurenine (Kyn/Trp by HPLC) in PBMC supernatants after 48 h treatment; type: cell-based
T1 construct: PBMC were isolated from healthy donors who gave written consent that their donated blood may be used for scientific purposes; endogenous in cells; host or cells: primary human PBMC from healthy blood donors, stimulated with 10 μg/mL PHA
Protocol: The study was performed in accordance with the Declaration of Helsinki. PBMC were isolated from healthy donors who gave written consent that their donated blood may be used for scientific purposes, in case when it was not selected for transfusion. The PBMC were isolated by density gradient centrifugation as described earlier.
as §1, with “The” for “The cells were seeded in 48-well plates (1.5 × 10^6 cells/mL/well) and treated either with increasing concentrations of the extract, the individual fractions or the pure compounds, dissolved in DMSO. The”
Briefly, the HPLC analysis of tryptophan and kynurenine was performed on a ProStar Varian system (USA) using rp-18 columns (Merck, Germany) and acetate buffer as eluent (flow-rate: 0.9 mL/min) according to the protocol described earlier. 3-Nitro-L-tyrosine (Sigma Aldrich, Austria) was used as an internal standard. Kynurenine and tryptophan standards were purchased from Sigma-Aldrich (Austria). Kynurenine and 3-nitro-L-tyrosine were detected by UV-absorbance at 360 nm wavelength (Shimadzu SPD-6A UV detector, Austria), tryptophan was detected by its fluorescence with an excitation wavelength of 286 nm and an emission wavelength of 366 nm (ProStar 360 detector, Varian, USA). The Kyn/Trp was calculated, which is an estimate of IDO-1 activity and expressed in μmol Kyn / mmol Trp. The sensitivity of the measurements was 0.5 μmol/L kynurenine and 0.1 μmol/L tryptophan.
P-values below 0.05 were considered to indicate significance. Results are expressed as percent of unstimulated and PHA-stimulated control cells and are shown as mean ± standard error of the mean (SEM).

T1 sequence (P14902 whole entry): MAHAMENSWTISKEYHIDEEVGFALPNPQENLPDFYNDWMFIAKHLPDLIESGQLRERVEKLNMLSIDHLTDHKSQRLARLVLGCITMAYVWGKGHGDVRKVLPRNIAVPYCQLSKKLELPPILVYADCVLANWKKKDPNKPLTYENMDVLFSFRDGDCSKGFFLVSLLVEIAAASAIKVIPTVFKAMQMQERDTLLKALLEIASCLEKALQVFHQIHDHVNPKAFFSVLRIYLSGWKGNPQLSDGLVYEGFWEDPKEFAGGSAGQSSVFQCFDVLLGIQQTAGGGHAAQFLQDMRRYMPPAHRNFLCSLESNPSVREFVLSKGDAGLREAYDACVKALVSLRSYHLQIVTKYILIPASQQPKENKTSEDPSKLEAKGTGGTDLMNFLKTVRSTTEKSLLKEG

For `COC1=C(C(C)C)C(=O)c2c(O)cc3c(c2C1=O)C=CC(=O)C3(C)C` [compound 3, agastaquinone], the “Inhibition of neopterin formation (in words)” value (shortened to “Inhibition”) [1] was “no dose-dependent effect” and the pIC50 [2] was 4.33.
`CC(C)C1=C(O)C(=O)C2=C(C1=O)[C@H](O)C[C@H]1C(C)(C)CCC[C@]21C` [compound 1, horminone] was tested, and the “Inhibition” value [1] was “inhibition of neopterin formation” and the pIC50 [2] was 3.46.
`COC1=C(C(C)C)C(=O)c2c(O)cc3c(c2C1=O)C=CCC3(C)C` [compound 8, 3-deoxyagastaquinone] was tested, and the “Inhibition” value [1] was “inhibition of neopterin formation” and the pIC50 [2] was 4.10.
For `C=C1[C@@H](C)CC[C@]2(C)c3c(O)c(OC)c(C(C)C)c(O)c3C(=O)C[C@@H]12` [compound 7, agastol], the “Inhibition” value [1] was “minor” and the pIC50 [2] was 3.78.
`CC(=O)O[C@@H]1C[C@H]2C(C)(C)CCC[C@]2(C)C2=C1C(=O)C(C(C)C)=C(O)C2=O` [compound 2, 7-O-acetylhorminone] was tested, and the “Inhibition” value [1] was “inhibition of neopterin formation” and the pIC50 [2] was 4.14.
For `COc1c(O)c2c(c(O)c1C(C)C)C(=O)C[C@H]1C(C)(C)CCC[C@]21C` [compound 6, inuroyleanol], the “Inhibition” value [1] was “no dose-dependent effect”.
